Assay results from ChEMBL document CHEMBL1158980, “Bioactive neolignans from Endlicheria dysodantha” (J Nat Prod, 1991).
Converted amounts (≈) assume the structure as drawn. The source made the active and inactive calls. No cut-off for these calls is given here.

Assays:
Artemia = experiment: Toxicity against brine shrimp; type: organism-based; details: in vivo
[1] = tested on: Agrobacterium tumefaciens; experiment: Antitumor activity against Agrobacterium tumefaciens-induced crown gall tumor in potato tubers; type: functional
HT-29 = experiment: Cytotoxicity against human HT-29 cells; type: functional; details: read-out: ED50 (the source's name)
A549 = experiment: Cytotoxicity against human A549 cells; type: functional; details: read-out: ED50 (the source's name)
MCF7 = experiment: Cytotoxicity against human MCF7 cells; type: functional; details: read-out: ED50 (the source's name)

For `COc1cccc2c1C(=O)c1c(O)c3c(c(O)c1C2=O)C[C@@](O)(C(=O)CO)C[C@@H]3O[C@H]1C[C@H](N)[C@H](O)[C@H](C)O1` [DOXORUBICIN], the LC50 (Artemia) was 4.05 ppm, the “inhibition (INH)” value [1] was 68.8% and the EC50 (HT-29) was 0.0344 µg/mL (≈ 0.0633 µM). The EC50 (A549) was 0.0292 µg/mL (≈ 0.0537 µM) and the EC50 (MCF7) was 0.115 µg/mL (≈ 0.212 µM).
`C=CC[C@]12C=C(OC)C(=O)C=C1O[C@@H](c1cc(OC)c3c(c1)OCO3)[C@H]2C` was tested, and the LC50 (Artemia) was 162.1 ppm, the inhibition [1] was “inactive” and the EC50 (HT-29) was 96.5 µg/mL (≈ 261 µM). It also gave an EC50 (A549) of over 100 µg/mL and an EC50 (MCF7) of 79 µg/mL (≈ 213 µM).
In the case of `C=CC[C@]1([C@H](C)[C@@H](OC(C)=O)c2cc(OC)c(OC)c(OC)c2)C[C@@H](OC)C=CC1=O` [MEGAPHONE ACETATE], the LC50 (Artemia) is reported as 253.6 ppm, the “inhibition (INH)” value [1] is reported as 48.3% and the EC50 (HT-29) is reported as 0.552 µg/mL. For the same molecule, the EC50 (A549) was 2.59 µg/mL and the EC50 (MCF7) was 3.66 µg/mL.
With `C=CC[C@@]12C[C@@H](OC)C(=O)C=C1O[C@@H](c1cc(OC)c3c(c1)OCO3)[C@H]2C` [DYSODANTHIN A] the LC50 (Artemia) was 47.53 ppm, the “inhibition (INH)” value [1] was 32.2% and the EC50 (HT-29) was 2.39 µg/mL (≈ 6.42 µM). For the same molecule, the EC50 (A549) was 4.23 µg/mL (≈ 11.4 µM) and the EC50 (MCF7) was 5.51 µg/mL (≈ 14.8 µM).
For `C=CC[C@@]12C[C@@H](OC)C(=O)C=C1O[C@@H](c1cc(OC)c(OC)c(OC)c1)[C@H]2C` [DYSODANTHIN B], the LC50 (Artemia) was 334.2 ppm, the “inhibition (INH)” value [1] was 52% and the EC50 (HT-29) was 2.76 µg/mL (≈ 7.1 µM). For the same molecule, the EC50 (A549) was 3.68 µg/mL (≈ 9.47 µM) and the EC50 (MCF7) was 4.09 µg/mL (≈ 10.5 µM).
